Assay results taken from ChEMBL document CHEMBL1201862, “PubChem BioAssay data set” (2004).
Active and inactive are the calls of the source.

Experiments:
[1] = test system: Streptococcus sp. 'group A'; experiment: Streptococcus pyogenes SK(-)GAS viability under kanamycin – luminescence, BacTiterGlo, confirmation, counter-screen for streptokinase expression inhibitor project, dose response (AID 1900); type: functional, organism-based
Streptokinase A = molecular target: T1, Streptokinase A (Streptococcus pyogenes serotype M1, UniProt P10520); experiment: viability-normalized secreted streptokinase activity reduction – plasminogen activation absorbance, OD405, dose response (AID 1914); type: functional, Streptococcus pyogenes M1 GAS;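 also: secreted streptokinase activity via plasminogen activation per viability signal from cell pellet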
T1 sequence (P10520 whole entry): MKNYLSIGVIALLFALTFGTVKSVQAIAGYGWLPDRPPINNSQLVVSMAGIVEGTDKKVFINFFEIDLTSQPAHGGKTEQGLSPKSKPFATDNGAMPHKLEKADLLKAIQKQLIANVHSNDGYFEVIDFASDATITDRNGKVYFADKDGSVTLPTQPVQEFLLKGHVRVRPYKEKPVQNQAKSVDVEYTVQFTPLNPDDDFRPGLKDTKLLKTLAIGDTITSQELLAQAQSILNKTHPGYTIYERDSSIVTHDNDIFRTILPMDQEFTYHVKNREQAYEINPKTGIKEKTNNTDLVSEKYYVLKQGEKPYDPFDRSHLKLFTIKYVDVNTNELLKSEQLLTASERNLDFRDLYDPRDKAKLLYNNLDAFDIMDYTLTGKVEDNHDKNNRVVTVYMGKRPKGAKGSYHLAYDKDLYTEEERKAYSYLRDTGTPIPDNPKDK

Streptococcus = experiment: GAS UMAA2166 growth inhibition – luminescence, BacTiterGlo, counter-screen for streptokinase expression inhibitor project, dose response (AID 1915); type: functional, organism-based;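 also: potency for reduction of bacterial viability or growth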
[2] = Luminescence Cell-Based Dose Retest to Confirm Inhibitors of Cancer Stem Cells. [Related pubchem assays (depositor defined):AID2717, AID2721]; type: functional; conditions: Homo sapiens
[3] = viability loss of HMLE_sh_eGFP cells – cell-based, luminescence, counter-screen for HMLE_sh_ECad selective toxicity project, dose response (AID 463074); type: functional, Homo sapiens;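 also: HMLE human mammary epithelial cells expressing control shRNA against eGFP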
[4] = molecular target: Glucose-6-phosphate 1-dehydrogenase (Homo sapiens, UniProt P11413); experiment: inhibition of Homo sapiens G6PD, dose series – biochemical, fluorescence, selectivity assay for P. falciparum G6PD inhibitor project, dose response (AID 504792); type: functional
[5] = molecular target: FAD-linked sulfhydryl oxidase ALR (Homo sapiens, UniProt P55789); experiment: ALR-catalysed DTT oxidation blockers – biochemical, H2O2 detection, luminescence, cherry-pick, dose response (AID 493248)
[6] = Trypanosoma cruzi growth suppression in host cells – NIH3T3 host cells, beta-gal luminescence, confirmation (AID 2044); type: functional, cell-based;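 also: intracellular parasites grown in NIH/3T3 mouse fibroblasts as host cells; luminescent beta-galactosidase reporter signal from transgenic T. cruzi replicating inside host cells; inhibitors lower the luminescence signal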
[7] = NIH3T3 cell viability loss – ATP luminescence, mouse fibroblasts, counter-screen, dose response (AID 2010); type: functional, cell-based;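 also: cells exposed to compound for about 90 hours before reading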
Exodeoxyribonuclease V = molecular target: T2, Exodeoxyribonuclease V (Escherichia coli (strain K12), UniProt P04993+P07648+P08394); experiment: RecBCD inhibition via phage-restricted bacterial growth – absorbance, V66 E. coli, mutant T4 phage, counter-screen for AddAB inhibitor project, dose response (AID 492957); type: functional, cell-based, Escherichia coli str. K-12 substr. MG1655
T2 sequence (P04993 whole entry): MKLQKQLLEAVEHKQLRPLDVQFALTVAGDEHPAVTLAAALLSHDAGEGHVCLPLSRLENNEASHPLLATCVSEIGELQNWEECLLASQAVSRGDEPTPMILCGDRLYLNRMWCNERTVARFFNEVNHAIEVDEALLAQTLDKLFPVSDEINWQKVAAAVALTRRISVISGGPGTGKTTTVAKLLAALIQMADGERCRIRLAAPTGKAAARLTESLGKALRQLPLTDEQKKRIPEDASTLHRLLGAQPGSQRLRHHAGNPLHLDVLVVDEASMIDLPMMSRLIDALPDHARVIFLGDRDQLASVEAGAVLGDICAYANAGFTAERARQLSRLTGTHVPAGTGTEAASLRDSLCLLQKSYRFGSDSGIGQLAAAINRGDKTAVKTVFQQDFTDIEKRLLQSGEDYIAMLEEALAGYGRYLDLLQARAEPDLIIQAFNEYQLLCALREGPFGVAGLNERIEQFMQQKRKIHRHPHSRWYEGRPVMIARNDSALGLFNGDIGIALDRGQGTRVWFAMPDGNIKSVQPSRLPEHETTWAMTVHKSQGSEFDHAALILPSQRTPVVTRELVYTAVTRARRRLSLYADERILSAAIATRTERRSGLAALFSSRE
T2 sequence (P07648 whole entry): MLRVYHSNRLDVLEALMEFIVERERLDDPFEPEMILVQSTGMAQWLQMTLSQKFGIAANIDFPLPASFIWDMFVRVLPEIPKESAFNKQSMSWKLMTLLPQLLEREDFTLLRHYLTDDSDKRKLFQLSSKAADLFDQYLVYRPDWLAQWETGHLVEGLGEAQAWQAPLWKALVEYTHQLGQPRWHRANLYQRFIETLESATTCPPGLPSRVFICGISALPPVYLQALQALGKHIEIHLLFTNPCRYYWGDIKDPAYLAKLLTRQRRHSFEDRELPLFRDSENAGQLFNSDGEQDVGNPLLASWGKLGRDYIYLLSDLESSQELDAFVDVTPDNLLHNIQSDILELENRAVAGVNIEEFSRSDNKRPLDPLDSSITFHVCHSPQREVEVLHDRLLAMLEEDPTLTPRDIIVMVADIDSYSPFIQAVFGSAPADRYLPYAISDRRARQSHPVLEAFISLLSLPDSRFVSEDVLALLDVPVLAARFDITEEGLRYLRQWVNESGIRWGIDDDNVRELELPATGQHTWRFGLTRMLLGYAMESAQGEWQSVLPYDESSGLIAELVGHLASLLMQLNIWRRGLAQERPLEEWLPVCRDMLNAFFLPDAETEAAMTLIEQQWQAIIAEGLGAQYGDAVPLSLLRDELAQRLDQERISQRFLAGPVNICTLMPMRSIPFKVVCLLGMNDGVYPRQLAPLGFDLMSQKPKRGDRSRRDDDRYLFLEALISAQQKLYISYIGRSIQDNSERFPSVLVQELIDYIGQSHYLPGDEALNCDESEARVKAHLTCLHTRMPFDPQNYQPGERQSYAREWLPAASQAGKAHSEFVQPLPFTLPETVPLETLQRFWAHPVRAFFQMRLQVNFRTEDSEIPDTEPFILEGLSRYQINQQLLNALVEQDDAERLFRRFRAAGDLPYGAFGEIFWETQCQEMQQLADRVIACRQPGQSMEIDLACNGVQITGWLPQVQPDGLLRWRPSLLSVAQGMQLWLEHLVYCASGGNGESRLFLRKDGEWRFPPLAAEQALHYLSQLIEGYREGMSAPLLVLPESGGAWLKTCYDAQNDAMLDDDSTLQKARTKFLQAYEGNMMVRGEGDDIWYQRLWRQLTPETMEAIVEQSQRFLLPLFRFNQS
T2 sequence (P08394 whole entry): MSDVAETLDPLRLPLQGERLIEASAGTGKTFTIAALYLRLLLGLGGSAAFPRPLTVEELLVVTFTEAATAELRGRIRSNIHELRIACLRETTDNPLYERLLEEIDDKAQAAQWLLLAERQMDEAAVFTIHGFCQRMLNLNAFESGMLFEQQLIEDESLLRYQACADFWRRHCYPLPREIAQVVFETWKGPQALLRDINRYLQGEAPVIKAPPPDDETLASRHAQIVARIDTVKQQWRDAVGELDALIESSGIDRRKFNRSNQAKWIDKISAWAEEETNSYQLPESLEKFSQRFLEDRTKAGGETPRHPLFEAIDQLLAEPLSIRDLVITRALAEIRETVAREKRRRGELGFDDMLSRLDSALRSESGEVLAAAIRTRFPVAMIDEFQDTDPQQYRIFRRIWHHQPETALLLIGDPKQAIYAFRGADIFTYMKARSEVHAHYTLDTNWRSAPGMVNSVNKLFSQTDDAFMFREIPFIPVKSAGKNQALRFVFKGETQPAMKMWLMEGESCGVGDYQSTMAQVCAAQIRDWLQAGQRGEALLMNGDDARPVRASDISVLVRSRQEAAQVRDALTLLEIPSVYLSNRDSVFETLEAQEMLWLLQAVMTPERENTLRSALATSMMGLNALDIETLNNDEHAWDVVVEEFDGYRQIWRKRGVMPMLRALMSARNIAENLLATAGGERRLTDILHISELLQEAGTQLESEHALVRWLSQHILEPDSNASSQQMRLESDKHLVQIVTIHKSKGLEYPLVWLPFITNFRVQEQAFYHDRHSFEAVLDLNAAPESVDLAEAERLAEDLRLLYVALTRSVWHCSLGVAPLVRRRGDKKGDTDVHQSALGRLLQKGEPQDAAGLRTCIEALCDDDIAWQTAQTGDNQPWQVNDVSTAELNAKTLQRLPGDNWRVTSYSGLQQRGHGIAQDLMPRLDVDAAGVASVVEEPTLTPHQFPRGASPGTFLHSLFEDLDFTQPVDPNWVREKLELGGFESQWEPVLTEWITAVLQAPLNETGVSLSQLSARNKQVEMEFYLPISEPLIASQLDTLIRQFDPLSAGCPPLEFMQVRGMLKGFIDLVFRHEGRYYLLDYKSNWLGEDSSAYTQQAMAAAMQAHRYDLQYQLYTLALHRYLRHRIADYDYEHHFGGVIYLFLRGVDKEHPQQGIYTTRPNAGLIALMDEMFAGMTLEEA

[8] = Counterscreen for AddAB inhibitors: absorbance-based bacterial cell-based high throughput dose response assay for inhibitors of bacterial viability. [Related pubchem assays (depositor defined):AID435030, AID449728, AID449731, AID488942, AID488955, AID488956]; type: functional
[9] = molecular target: Heat shock protein HSP 90-alpha (Homo sapiens, UniProt P07900); type: functional, organism-based
[10] = THP-1 cell cytotoxicity, dose response, cytotoxicity control for non-replicating M. tuberculosis project (AID 489025); type: functional
[11] = Vero E6 cell cytotoxicity, dose response, cytotoxicity control for non-replicating M. tuberculosis project, secondary assay (AID 492998); type: functional, VeroE6; conditions: Vero C1008
cells = type: functional
[12] = molecular target: T3, Heat shock factor protein 1 (Mus musculus, UniProt P38532); experiment: decrease of HSF1-responsive luciferase luminescence – cell-based, NIH3T3, dose retest, confirmation (AID 2382); type: functional;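 also: NIH3T3 fibroblasts with HSF1-driven luciferase reporter stressed by proteasome inhibitor MG132; luminescence from HSF1-driven luciferase expression after 8 hours of MG132 stress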
T3 sequence (P38532 whole entry): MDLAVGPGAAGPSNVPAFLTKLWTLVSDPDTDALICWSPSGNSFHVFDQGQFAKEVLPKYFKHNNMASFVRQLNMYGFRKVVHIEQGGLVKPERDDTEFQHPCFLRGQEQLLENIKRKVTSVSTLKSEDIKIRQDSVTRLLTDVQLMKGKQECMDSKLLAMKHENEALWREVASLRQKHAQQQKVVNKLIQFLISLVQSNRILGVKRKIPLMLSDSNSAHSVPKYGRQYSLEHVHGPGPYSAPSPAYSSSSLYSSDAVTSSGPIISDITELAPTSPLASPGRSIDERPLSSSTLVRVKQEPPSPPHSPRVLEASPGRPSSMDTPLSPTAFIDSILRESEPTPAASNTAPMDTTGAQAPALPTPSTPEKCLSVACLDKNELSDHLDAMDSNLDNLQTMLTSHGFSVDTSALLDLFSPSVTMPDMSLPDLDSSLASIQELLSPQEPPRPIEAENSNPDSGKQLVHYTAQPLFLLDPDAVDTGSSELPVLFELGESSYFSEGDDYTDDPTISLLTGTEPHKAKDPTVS

Chain of Glucose-6-phosphate 1-dehydrogenase (P11413 whole entry): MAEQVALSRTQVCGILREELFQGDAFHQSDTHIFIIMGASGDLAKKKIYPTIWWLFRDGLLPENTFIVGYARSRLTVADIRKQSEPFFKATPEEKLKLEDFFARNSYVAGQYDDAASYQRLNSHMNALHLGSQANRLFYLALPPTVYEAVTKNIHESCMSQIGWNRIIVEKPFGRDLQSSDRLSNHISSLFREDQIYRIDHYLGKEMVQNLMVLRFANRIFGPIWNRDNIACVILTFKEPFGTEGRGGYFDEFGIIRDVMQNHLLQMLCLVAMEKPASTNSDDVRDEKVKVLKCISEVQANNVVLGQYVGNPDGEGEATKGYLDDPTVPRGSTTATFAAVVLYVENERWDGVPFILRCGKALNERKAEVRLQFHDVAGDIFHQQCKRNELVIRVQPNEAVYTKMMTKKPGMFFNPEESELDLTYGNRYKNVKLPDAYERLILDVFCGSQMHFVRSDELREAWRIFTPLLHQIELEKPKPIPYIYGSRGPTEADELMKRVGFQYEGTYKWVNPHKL
Chain of FAD-linked sulfhydryl oxidase ALR (P55789 whole entry): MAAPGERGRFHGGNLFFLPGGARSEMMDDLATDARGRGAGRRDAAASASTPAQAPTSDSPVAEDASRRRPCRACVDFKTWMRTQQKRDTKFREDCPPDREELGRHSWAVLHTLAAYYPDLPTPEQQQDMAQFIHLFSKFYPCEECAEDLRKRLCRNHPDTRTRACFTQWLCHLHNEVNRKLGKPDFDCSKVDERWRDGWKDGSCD

Q: What does the source list for `COc1ccc(CCNC(=O)c2cc(-c3ccc(Cl)c(Cl)c3)oc2C)cc1`?
A: EC50 [1]: 7.72 µM (active); EC50 (Streptokinase A): 6.21 µM (inconclusive); EC50 (Streptococcus): 22.4 µM (active); AC50 [2]: 3.04 µM (active); AC50 [3]: 48.4 µM (active)

Q: Which IC50 [4] does the source give for `Oc1ccc(C23CC4CC(CC(C4)C2)C3)cc1O` here?
A: > 80 µM (inactive)

Q: What about the AC50 [5] of the same molecule?
A: 4.17 µM (active)

Q: With `CCCC(=O)NC(c1ccco1)c1cc(Cl)c2cccnc2c1O` (configuration not stated) as the molecule, how does the EC50 [1] read?
A: 1.18 µM (active)

Q: And the EC50 (Streptokinase A)?
A: > 150 µM (not active)

Q: What about the EC50 [6] of the same molecule?
A: 3.44 µM (active)

Q: What about the EC50 [7] of the same molecule?
A: 5.04 µM (active)

Q: And the EC50 (Streptococcus)?
A: 32 µM (active)

Q: What about the IC50 (Exodeoxyribonuclease V) of the same molecule?
A: > 119 µM (inactive)

Q: What about the IC50 [8] of the same molecule?
A: > 119 µM (inactive)

Q: And the AC50 [9]?
A: 4.25 µM (active)

Q: What does the source list for `NC(=NOC(=O)c1ccccc1Cl)c1ncc([N+](=O)[O-])s1`?
A: IC50 (Exodeoxyribonuclease V): > 119 µM (inactive); CC50 [10]: 34.4 µM (active); CC50 [11]: > 20 µM (active); IC50 [8]: > 119 µM (inactive); IC50 (cells): 3.81 µM (active)

Q: For `CC(C)(C)c1ccc2c(c1)OC(C(=O)N/N=C\c1ccc[nH]1)CO2` (configuration not stated), which EC50 [12] is on record?
A: 0.436 µM (active)

Q: What about the AC50 [2] of the same molecule?
A: 1.94 µM (active)

Q: What about the AC50 [3] of the same molecule?
A: 23 µM (active)

Q: What does the source list for `COc1ccc2nc(NC(=O)CCNC(=O)c3ccco3)sc2c1`?
A: IC50 (Exodeoxyribonuclease V): > 119 µM (inactive); IC50 [8]: > 119 µM (inactive)

Q: With `CCN(CC)CCNCc1ccc(-c2ccc(Cl)cc2)o1` as the molecule, how does the AC50 [2] read?
A: 8.94 µM (active)

Q: And the AC50 [3]?
A: 20.9 µM (active)
